# Legend:
# BTK = BTK (Homo sapiens, UniProt Q06187); assay: BTK cell degradation in TMD-8 cells, HTRF assay; type: cell-based; parameters: endogenous in cells; host or cells: TMD-8 cells; conditions: 6 h treatment, IC50 (DC50) of BTK degradation
# Method in brief: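 BTK levels read by HTRF in lysates of TMD-8 cells exposed to compounds for 6 h, eight concentrations at 6-fold steps in 0.2% DMSO. Percent degradation versus DMSO and low controls was fitted with a four-parameter equation to give DC50; Dmax is maximal degradation.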
# HEK-293 cells = assay: HEK-293 cytotoxicity detection (CellTiter-Glo); type: cell-based; conditions: Homo sapiens, 72 h, 72 h incubation, CellTiter-Glo luminescence, read-out: HEK293
# Method in brief: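 HEK-293 cells exposed 72 h to 8 compounds doses (4-fold dilutions, top stock 5 mM at 500×) in 0.2% DMSO. Viability by CellTiter-Glo luminescence; inhibition normalised to DMSO high control and low control, IC50 from four-parameter curve fit.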
# Sequence of BTK (Q06187 whole entry): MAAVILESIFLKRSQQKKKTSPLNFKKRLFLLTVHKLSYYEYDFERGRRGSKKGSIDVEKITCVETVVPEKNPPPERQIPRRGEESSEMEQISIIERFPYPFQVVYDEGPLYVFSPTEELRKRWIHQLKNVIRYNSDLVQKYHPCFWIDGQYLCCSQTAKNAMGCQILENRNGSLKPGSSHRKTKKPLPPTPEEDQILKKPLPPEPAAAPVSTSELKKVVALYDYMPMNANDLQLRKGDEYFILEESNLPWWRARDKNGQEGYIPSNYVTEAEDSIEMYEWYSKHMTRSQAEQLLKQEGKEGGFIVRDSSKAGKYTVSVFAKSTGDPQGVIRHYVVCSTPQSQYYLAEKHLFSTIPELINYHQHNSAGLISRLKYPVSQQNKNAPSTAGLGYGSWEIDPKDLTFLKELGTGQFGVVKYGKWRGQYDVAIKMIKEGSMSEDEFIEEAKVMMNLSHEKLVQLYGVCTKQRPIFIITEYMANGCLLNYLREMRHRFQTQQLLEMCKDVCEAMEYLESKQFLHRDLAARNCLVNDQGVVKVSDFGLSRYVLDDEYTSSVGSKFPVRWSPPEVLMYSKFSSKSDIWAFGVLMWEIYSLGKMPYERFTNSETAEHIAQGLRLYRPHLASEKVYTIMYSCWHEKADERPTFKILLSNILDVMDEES
compound,measurement,setting,value
"NC(=O)c1c(-c2ccc(C(=O)Nc3ccc(C(F)(F)F)cn3)cc2)nn2c1Nc1ccc(N3CCN(CC4CCN(c5ccc(N6CCC(=O)NC6=O)cc5)CC4)CC3)cc1CC2 [Example B17, 7-(4-((1-(4-(2,4-dioxotetrahydropyrimidin-1(2H)-yl)phenyl)piperidin-4-yl)methyl)piperazin-1-yl)-2-(4-((5-(trifluoromethyl)pyridin-2-yl)carbamoyl)phenyl)-9,10-dihydro-4H-benzo[d]pyrazolo[1,5-a][1,3]diazepine-3-carboxamide]",DC50,BTK,2.19 nM
same,IC50,HEK-293 cells,> 10000 nM
"Cc1cccc(NC(=O)c2ccc(-c3nn4c(c3C(N)=O)Nc3ccc(N5CCN(C6CN(C7CN(c8ccc(C9CCC(=O)NC9=O)cc8)C7)C6)CC5)cc3CC4)c(F)c2C)n1 (stereo not shown) [Example B65, 7-(4-(1′-(4-(2,6-dioxopiperidin-3-yl)phenyl)-[1,3′-biazetidin]-3-yl)piperazin-1-yl)-2-(2-fluoro-3-methyl-4-((6-methylpyridin-2-yl)carbamoyl)phenyl)-9,10-dihydro-4H-benzo[d]pyrazol[1,5-a][1,3]diazepine-carboxamide]",DC50,BTK,1.78 nM
same,IC50,HEK-293 cells,98.8 nM
"Cc1cc(-c2nn3c(c2C(N)=O)Nc2ccc(N4CCN(CC5CCN(c6ccc(N7CCC(=O)NC7=O)cc6)CC5)CC4)cc2CC3)ccc1CNC(=O)c1noc(C(C)(C)C)n1 [Example C7, 5-(tert-butyl)-N-(4-(3-carbamoyl-7-(4-((1-(4-(2,4-dioxotetrahydropyrimidin-1(2H)-yl)phenyl)piperidin-4-yl)methyl)piperazin-1-yl)-9,10-dihydro-4H-benzo[d]pyrazolo[1,5-a][1,3]diazepin-2-yl)-2-methylbenzyl)-1,2,4-oxadiazole-3-carboxamide]",DC50,BTK,22.7 nM
same,IC50,HEK-293 cells,> 10000 nM
"Cc1cccc(NC(=O)c2ccc(-c3nn4c(c3C(N)=O)Nc3ccc(N5CCN(C6CC(c7ccc(N[C@H]8CCC(=O)NC8=O)cc7)C6)CC5)cc3CC4)c(F)c2C)n1 (stereo partly drawn) [Example B72, (S)-7-(4-(3-(4-((2,6-dioxopiperidin-3-yl)amino)phenyl)cyclobutyl)piperazin-1-yl)-2-(2-fluoro-3-methyl-4-((6-methylpyridin-2-yl)carbamoyl)phenyl)-9,10-dihydro-4H-benzo[d]pyrazolo[1,5-a][1,3]diazepine-3-carboxamide]",DC50,BTK,6.23 nM
same,IC50,HEK-293 cells,> 10000 nM
"Cc1c(C(=O)Nc2cscn2)ccc(-c2nn3c(c2C(N)=O)Nc2ccc(N4CCN(C(=O)C5CCN(c6ccc(N7CCC(=O)NC7=O)cc6)CC5)CC4)cc2CC3)c1F [Example B102, 7-(4-(1-(4-(2,4-dioxotetrahydropyrimidin-1(2H)-yl)phenyl)piperidine-4-carbonyl)piperazin-1-yl)-2-(2-fluoro-3-methyl-4-(thiazol-4-ylcarbamoyl)phenyl)-9,10-dihydro-4H-benzo[d]pyrazolo[1,5-a][1,3]diazepine-3-carboxamide]",DC50,BTK,1.1 nM
same,IC50,HEK-293 cells,> 10000 nM
"NC(=O)c1c(-c2ccc(C(=O)Nc3cc(C4CC4)ccn3)cc2)nn2c1Nc1ccc(N3CCN(CC4CCN(c5ccc(N6CCC(=O)NC6=O)cc5)CC4)CC3)cc1CC2 [Example B11, 2-(4-((4-cyclopropylpyridin-2-yl)carbamoyl)phenyl)-7-(4-((1-(4-(2,4-dioxotetrahydropyrimidin-1(2H)-yl)phenyl)piperidin-4-yl)methyl)piperazin-1-yl)-9,10-dihydro-4H-benzo[d]pyrazolo[1,5-a][1,3]diazepine-3-carboxamide]",DC50,BTK,0.387 nM
same,IC50,HEK-293 cells,> 10000 nM
"COc1ccncc1C(=O)NCc1ccc(-c2nn3c(c2C(N)=O)Nc2ccc(N4CCN(CC5CCN(c6ccc(N7CCC(=O)NC7=O)cc6)CC5)CC4)cc2CC3)cc1C [Example C35, 7-(4-((1-(4-(2,4-dioxotetrahydropyrimidin-1(2H)-yl)phenyl)piperidin-4-yl)methyl)piperazin-1-yl)-2-(4-((4-methoxynicotinamido)methyl)-3-methylphenyl)-9,10-dihydro-4H-benzo[d]pyrazolo[1,5-a][1,3]diazepine-3-carboxamide]",DC50,BTK,1.1 nM
same,IC50,HEK-293 cells,> 10000 nM
"Cc1c(-c2nc(-c3ccccn3)no2)ccc(-c2nn3c(c2C(N)=O)Nc2ccc(N4CCN(CC5CCN(c6ccc(N7CCC(=O)NC7=O)cc6)CC5)CC4)cc2CC3)c1F [Example B46, 7-(4-((1-(4-(2,4-dioxotetrahydropyrimidin-1(2H)-yl)phenyl)piperidin-4-yl)methyl)piperazin-1-yl)-2-(2-fluoro-3-methyl-4-(3-(pyridin-2-yl)-1,2,4-oxadiazol-5-yl)phenyl)-9,10-dihydro-4H-benzo[d]pyrazolo[1,5-a][1,3]diazepine-3-carboxamide]",DC50,BTK,15 nM
same,IC50,HEK-293 cells,> 10000 nM
"COc1ccc(C(F)(F)F)cc1C(=O)NCc1ccc(-c2nn3c(c2C(N)=O)Nc2ccc(N4CCN(CC5CCN(c6ccc(N7CCC(=O)NC7=O)cc6)CC5)CC4)cc2CC3)cc1F [Example C26, 7-(4-((1-(4-(2,4-dioxotetrahydropyrimidin-1(2H)-yl)phenyl)piperidin-4-yl)methyl)piperazin-1-yl)-2-(3-fluoro-4-((2-methoxy-5-(trifluoromethyl)benzamido)methyl)phenyl)-9,10-dihydro-4H-benzo[d]pyrazolo[1,5-a][1,3]diazepine-3-carboxamide]",DC50,BTK,1.79 nM
same,IC50,HEK-293 cells,108 nM
"Cc1cccc(NC(=O)c2ccc(-c3nn4c(c3C(N)=O)Nc3ccc(N5CCN(CC6CCN(c7ccc(N8CCC(=O)NC8=O)cc7)CC6)CC5)cc3CC4)c(Cl)c2)n1 [Example B20, 2-(2-chloro-4-((6-methylpyridin-2-yl)carbamoyl)phenyl)-7-(4-((1-(4-(2,4-dioxotetrahydropyrimidin-1(2H)-yl)phenyl)piperidin-4-yl)methyl)piperazin-1-yl)-9,10-dihydro-4H-benzo[d]pyrazolo[1,5-a][1,3]diazepine-3-carboxamide]",DC50,BTK,0.469 nM
same,IC50,HEK-293 cells,> 10000 nM
"Cc1cccc(N(CC(=O)OCc2ccccc2)C(=O)c2ccc(-c3nn4c(c3C(N)=O)Nc3ccc(N5CCN(CC6CCN(c7ccc(N8CCC(=O)N(CC(=O)OCc9ccccc9)C8=O)cc7)CC6)CC5)cc3CC4)c(F)c2C)n1 [Example B81, benzyl 2-(3-(4-(4-((4-(2-(4-((2-(benzyloxy)-2-oxoethyl)(6-methylpyridin-2-yl)carbamoyl)-2-fluoro-3-methylphenyl)-3-carbamoyl-9,10-dihydro-4H-benzo[d]pyrazolo[1,5-a][1,3]diazepin-7-yl)piperazin-1-yl)methyl)piperidin-1-yl)phenyl)-2,6-dioxotetrahydropyrimidin-1(2H)-yl)acetate]",DC50,BTK,> 2000 nM
same,IC50,HEK-293 cells,56.8 nM
"NC(=O)c1c(-c2ccc(Oc3ccccc3)cc2)nn2c1Nc1cc(C3CCN(CC4CCN(c5ccc(N6CCC(=O)NC6=O)cc5)CC4)CC3)ccc1CC2 [Example A27, 6-(1-((1-(4-(2,4-dioxotetrahydropyrimidin-1(2H)-yl)phenyl)piperidin-4-yl)methyl)piperidin-4-yl)-2-(4-phenoxyphenyl)-9,10-dihydro-4H-benzo[d]pyrazolo[1,5-a][1,3]diazepine-3-carboxamide]",DC50,BTK,6.73 nM
same,IC50,HEK-293 cells,317 nM
"Cc1c(C(=O)Nc2cnc3ccccc3n2)ccc(-c2nn3c(c2C(N)=O)Nc2ccc(N4CCN(CC5CCN(c6ccc(N7CCC(=O)NC7=O)cc6)CC5)CC4)cc2CC3)c1F [Example B47, 7-(4-((1-(4-(2,4-dioxotetrahydropyrimidin-1(2H)-yl)phenyl)piperidin-4-yl)methyl)piperazin-1-yl)-2-(2-fluoro-3-methyl-4-(quinoxalin-2-ylcarbamoyl)phenyl)-9,10-dihydro-4H-benzo[d]pyrazolo[1,5-a][1,3]diazepine-3-carboxamide]",DC50,BTK,1.9 nM
same,IC50,HEK-293 cells,> 10000 nM
"NC(=O)c1c(-c2ccc(C(=O)Nc3cc(C(F)(F)F)ccn3)c(Cl)c2)nn2c1Nc1ccc(N3CCN(CC4CCN(c5ccc(N6CCC(=O)NC6=O)cc5)CC4)CC3)cc1CC2 [Example B26, 2-(3-chloro-4-((4-(trifluoromethyl)pyridin-2-yl)carbamoyl)phenyl)-7-(4-((1-(4-(2,4-dioxotetrahydropyrimidin-1(2H)-yl)phenyl)piperidin-4-yl)methyl)piperazin-1-yl)-9,10-dihydro-4H-benzo[d]pyrazolo[1,5-a][1,3]diazepine-3-carboxamide]",DC50,BTK,0.928 nM
same,IC50,HEK-293 cells,> 10000 nM
"Cc1c(C(=O)Nc2cscn2)ccc(-c2nn3c(c2C(N)=O)Nc2ccc(N4CCN(CC5CCN(c6cccc(CN7CCC(=O)NC7=O)c6)CC5)CC4)cc2CC3)c1F [Example B99, 7-(4-((1-(3-((2,4-dioxotetrahydropyrimidin-1(2H)-yl)methyl)phenyl)piperidin-4-yl)methyl)piperazin-1-yl)-2-(2-fluoro-3-methyl-4-(thiazol-4-ylcarbamoyl)phenyl)-9,10-dihydro-4H-benzo[d]pyrazolo[1,5-a][1,3]diazepine-3-carboxamide]",DC50,BTK,2.72 nM
same,IC50,HEK-293 cells,> 10000 nM
"Cc1c(C(=O)Nc2cn(C)cn2)ccc(-c2nn3c(c2C(N)=O)Nc2ccc(N4CCN(CCc5cc(F)c(C6CCC(=O)NC6=O)c(F)c5)CC4)cc2CC3)c1F (stereo not shown) [Example B88, 7-(4-(4-(2,6-dioxopiperidin-3-yl)-3,5-difluorophenethyl)piperazin-1-yl)-2-(2-fluoro-3-methyl-4-((1-methyl-1H-imidazol-4-yl)carbamoyl)phenyl)-9,10-dihydro-4H-benzo[d]pyrazolo[1,5-a][1,3]diazepine-3-carboxamide]",DC50,BTK,1.63 nM
same,IC50,HEK-293 cells,> 10000 nM
"NC(=O)c1c(-c2ccc(Oc3ccccc3)cc2)nn2c1Nc1ccc(NC3CCN(CC4CCN(c5cc6c(cc5F)C(=O)N(C5CCC(=O)NC5=O)C6=O)CC4)CC3)cc1CC2 (stereo not shown) [Example A5, 7-((1-((1-(2-(2,6-dioxopiperidin-3-yl)-6-fluoro-1,3-dioxoisoindolin-5-yl)piperidin-4-yl)methyl)piperidin-4-yl)amino)-2-(4-phenoxyphenyl)-9,10-dihydro-4H-benzo[d]pyrazolo[1,5-a][1,3]diazepine-3-carboxamide]",DC50,BTK,1.45 nM
same,IC50,HEK-293 cells,83.3 nM

# Reference: patent publication US20240246977A1, “DEGRADATION OF BRUTON'S TYROSINE KINASE (BTK) BY CONJUGATION OF BTK INHIBITORS WITH E3 LIGASE LIGAND AND METHOD OF USE” (BeiGene Switzerland GmbH, priority 2021, published 2024)
